The assay concerns the target Topoisomerase II (Topo II). Briefly: ELISA-based Topo II inhibition assay kit (Abcam), recombinant human enzyme, colorimetric. It is filed as biochemical. Background: ELISA stands for enzyme-linked immunosorbent assay.

Consider one molecule from paper PMC12680189, “Aotaphenazine, a rare hydrophenazine, targets topoisomerase II with anticancer efficacy: In silico to in vitro evidence” (PLOS One, 2025).

Broadly, the IC50 is the concentration that inhibits the measured activity by half.

With `O=c1oc(=O)c2c(ccc3nc4ccccc4[nH]c32)c1-c1ccccc1` [aotaphenazine], the half-inhibitory concentration (IC50) came to 45 nM.
